In EP0024779A1, “Drugs for use with intrauterine devices and intrauterine devices containing said drugs” (Shaw, Seth Thomas, Jr., priority 1979, dated 1981):

System: fibrinolytic activity
Test: Fibrinolytic inhibition, potency relative to dibromopropamidine
Assay type: biochemical
Settings: on a molar concentration basis
From the text: The numerical values are expressed as a reciprocal of the concentration of the drug producing the equivalent inhibition to the dibromopropamidine. Where no values for relative potency are listed such values have not been specifically determined.

Structure (SMILES)	anti-fibrinolytic effect greater than that of dibromopropamidine [times]
N=C(N)Nc1ccc(C(=O)Oc2ccc([N+](=O)[O-])cc2)cc1 [NPG3, p-nitrophenyl-p'-guanidinobenzoate]	~100

Same assay, conditions: relative to dibromopropamidine; reciprocal of the concentration producing inhibition equivalent to dibromopropamidine

Structure (SMILES)	Relative Potency
N=C(N)c1ccc(OCCCCCCOc2ccc(C(=N)N)cc2)cc1 [Hexamidine]	1.6
N=C(N)c1cccc(OCCCCCOc2cccc(C(=N)N)c2)c1 [m-Pentamidine]	0.6
N=C(N)c1ccc(OCCCOc2ccc(C(=N)N)cc2Br)c(Br)c1 [Dibromopropamidine]	1.0
N=C(N)c1ccc(OCCCOc2ccc(C(=N)N)cc2)cc1 [Propamidine]	1.2
N=C(N)c1ccc(OCCCCCCOc2ccc(C(=N)N)cc2Cl)c(Cl)c1 [Dichlorohexamidine]	1.9
N=C(N)c1ccc(OCCCCCCOc2ccc(C(=N)N)cc2I)cc1 [Monoiodohexamidine]	4.4
N=C(N)c1ccc(OCCCCCOc2ccc(C(=N)N)cc2)cc1 [Pentamidine]	2.4
N=C(N)c1ccc(OCCCCCCOc2ccc(C(=N)N)cc2I)c(I)c1 [Diiodohexamidine]	7.5
N=C(N)c1ccc(OCCCCCOc2ccc(C(=N)N)cc2I)c(I)c1 [Diiodopentamidine]	6.8
N=C(N)c1ccc(OCCCCCCCCOc2ccc(C(=N)N)cc2)cc1 [Octamidine]	2.6
N=C(N)c1ccc(OCCCCCCCOc2ccc(C(=N)N)cc2)cc1 [Heptamidine]	1.9
N=C(N)c1ccc(OCCCCCOc2ccc(C(=N)N)cc2Br)c(Br)c1 [Dibromopentamidine]	3.6
N=C(N)c1ccc(Oc2ccc(C(=N)N)cc2)cc1 [Phenamidine]	0.2

System: fibrinolytic activity
Test: not given
Settings: over a prolonged period of time inside the uterus; cited from earlier work

Structure (SMILES)	inhibitor concentration required to be effective [mol/L]
NCCCCCC(=O)O [EACA, epsilon aminocaproic acid]	0.001
NC[C@H]1CC[C@H](C(=O)O)CC1 [tranexamic acid]	0.0001

System: IUD associated uterine hemmorhage
Test: not given
Settings: systemic (oral) intake; cited from earlier work

Structure (SMILES)	IUD associated uterine hemmorhage
NCCCCCC(=O)O [EACA, epsilon aminocaproic acid]	alleviated
NC[C@H]1CC[C@H](C(=O)O)CC1 [tranexamic acid]	alleviated
